Results as given in patent publication US20200056220A1, “GENERATION OF DATA FOR USE WITH ANTIMICROBIALS” (GeneFluidics, Inc., priority 2018, published 2020).
Read-outs that look alike come from different tables or passages of the source.

System: E. coli
Conditions: for average current signal of the four sensors, base susceptibility test: 0 minutes susceptibility culture time, sample diluted to 5×10^5 CFU/mL, −250 mV; for average current signal of the four sensors, base susceptibility test / current of the 60 minute test sample: 0.4 μg antibiotic in 100 μL Mueller-Hinton broth
Experimental: In an antimicrobial susceptibility testing phase, a local antibiogram can be used to identify antibiotics for treating the pathogen identified in Example 1. […] Susceptibility cultures can be started. […] A second susceptibility culture including imipenem can be generated by diluting a portion of the raw sample to 5×10^5 CFU/mL and distributing the result into a vial with a 0.4 μg of a lyophilized version of the imipenem and 100 μL of culture media (Mueller-Hinton broth).
The imipenem susceptibility test sample can be used to generate an imipenem test sample shortly after the imipenem susceptibility culture was started. The Proteus automated system can begin to prepare a test sample from the imipenem susceptibility test sample by transferring 30 μL of the imipenem susceptibility test sample to a microcentrifuge vial in the machine. Then, the Proteus automated system can add 12 μL of 1M NaOH to the 30 μL sample. This sample can be incubated at room temperature for 2 minutes. The Proteus system can then add 8 μL of 1M HCl. Ten microliters of the result can be placed on each of 4 sensors of the 16 available on the GeneFluidics, Inc. 16X EC chip. This chip can be incubated in the Proteus machine for 11 minutes at 43° C. After completion of this incubation, the chip can be washed and dried by Proteus. Ten microliters of 0.5 U/mL anti-fluorescein horseradish peroxidase (HRP) Fab fragments (Roche; diluted in 1.0% casein in 1 M phosphate-buffered saline, pH 7.4) can be injected into the sensor chambers and incubated for 2 minutes at 25° C. The final reagent addition can be 40 μL of 3,3′,5,5′-tetramethylbenzidine (TMB)-H2O2 solution (K-Blue Low Activity TMB Substrate; Neogen, Lexington Ky.) and incubated for 30 seconds to provide the imipenem test sample.
Then, the Proteus automated system can add 12 μL of 1M NaOH to the 30 μL sample. This sample can be incubated at room temperature for 2 minutes. The Proteus system can then add 8 μL of 1M HCl. Ten microliters of the result can be placed on each of 4 sensors of the 16 available on the GeneFluidics, Inc. 16X EC chip. This chip can be incubated in the Proteus machine for 11 minutes at 43° C. After completion of this incubation, the chip can be washed and dried by Proteus. Ten microliters of 0.5 U/mL anti-fluorescein horseradish peroxidase (HRP) Fab fragments (Roche; diluted in 1.0% casein in 1 M phosphate-buffered saline, pH 7.4) can be injected into the sensor chambers and incubated for 2 minutes at 25° C.
The test samples were tested for concentration using a test that served as the base susceptibility test or the zero susceptibility culture time test. For instance, a Helios potentiostat from GeneFluidics, Inc. was connected to the electrodes of the sensor chips and a potential of −250 mV was applied across the electrodes for one minute. During this time, the current generated by the electrochemical reaction was measured by the potentiostat. The average current measured in the final 10 seconds of the potentiostat reading constituted the final result of the assay.
The process that was used to prepare the test samples for the base susceptibility tests was to be used to generate test samples from each of the susceptibility cultures at 60 minutes, and 90 minutes. Each of the test samples were tested as described above.

[1] = 60 minutes susceptibility culture time

Structure (SMILES)	average current signal of the four sensors, base susceptibility test [nA]	reported result (resistant / susceptible to the concentration of antimicrobial in the culture) (0.4 μg antibiotic in 100 μL culture media, final report when culture was stopped)	increase over the current level from base susceptibility test [1] [%]	current of the 60 minute test sample [1] [nA]	increase over the current level from base susceptibility test (90 minutes susceptibility culture time) [%]
O=C(O)c1cn(C2CC2)c2cc(N3CCNCC3)c(F)cc2c1=O [ciprofloxacin]	30	susceptible	0	30	0
C[C@@H](O)[C@H]1C(=O)N2C(C(=O)O)=C(SCCN=CN)C[C@H]12 [imipenem]	30		500	180	
